According to US20200331850A1, “NOVEL SULFONAMIDE CARBOXAMIDE COMPOUNDS” (Inflazome Limited, priority 2017, published 2020):
Counter-ions that a name gives are not always drawn.

Biological target: NLRP3 (Homo sapiens, UniProt Q96P20)
Experiment: Human whole blood IL1β release assay (LPS + nigericin, AlphaLisa IL-1β)
Type: cell-based
Design: Plate out 80 μl of whole blood containing 1βg/ml of LPS in 96-well, clear bottom cell culture plate; from tissue; host or cells: human whole blood from healthy donors, LPS-primed and nigericin-stimulated
Details: NLRP3 inhibitory activity in human whole blood, IL-1β release, 10 μM nigericin, read-out: HWB IC50
Experimental: For systemic delivery, the ability to inhibit NLRP3 when the compounds are present within the bloodstream is of great importance. For this reason, the NLRP3 inhibitory activity of a number of compounds in human whole blood was investigated in accordance with the following protocol.
Human whole blood in Li-heparin tubes was obtained from healthy donors from a volunteer donor panel. • 1. Plate out 80 μl of whole blood containing 1βg/ml of LPS in 96-well, clear bottom cell culture plate (Corning #3585) • 2. Add 10 μl compound (8 points half-log dilution with 10 μM top dose) or vehicle (DMSO 0.1% FAC) to the appropriate wells • 3. Incubate for 3 hrs at 37° C., 5% CO2 • 4. Add 10 μl Nigericin (Sigma # N7143) (10 μM FAC) to all wells • 5. Incubate for 1 hr at 37° C., 5% CO2 • 6. At the end of the incubation period, spin plates at 300×g for 5 mins to pellet cells and remove 20 μl of supernatant and add to 96-well v-bottom plates for IL-1β analysis (note: these plates containing the supernatants can be stored at −80° C. to be analysed at a later date) • 7. IL-1β was measured according to the manufacturer protocol (Perkin Elmer-AlphaLisa IL-1 Kit AL220F-5000) • 8. IC50 data is fitted to a non-linear regression equation (log inhibitor vs response-variable slope 4-parameters)

Sequence of NLRP3 (Q96P20 whole entry): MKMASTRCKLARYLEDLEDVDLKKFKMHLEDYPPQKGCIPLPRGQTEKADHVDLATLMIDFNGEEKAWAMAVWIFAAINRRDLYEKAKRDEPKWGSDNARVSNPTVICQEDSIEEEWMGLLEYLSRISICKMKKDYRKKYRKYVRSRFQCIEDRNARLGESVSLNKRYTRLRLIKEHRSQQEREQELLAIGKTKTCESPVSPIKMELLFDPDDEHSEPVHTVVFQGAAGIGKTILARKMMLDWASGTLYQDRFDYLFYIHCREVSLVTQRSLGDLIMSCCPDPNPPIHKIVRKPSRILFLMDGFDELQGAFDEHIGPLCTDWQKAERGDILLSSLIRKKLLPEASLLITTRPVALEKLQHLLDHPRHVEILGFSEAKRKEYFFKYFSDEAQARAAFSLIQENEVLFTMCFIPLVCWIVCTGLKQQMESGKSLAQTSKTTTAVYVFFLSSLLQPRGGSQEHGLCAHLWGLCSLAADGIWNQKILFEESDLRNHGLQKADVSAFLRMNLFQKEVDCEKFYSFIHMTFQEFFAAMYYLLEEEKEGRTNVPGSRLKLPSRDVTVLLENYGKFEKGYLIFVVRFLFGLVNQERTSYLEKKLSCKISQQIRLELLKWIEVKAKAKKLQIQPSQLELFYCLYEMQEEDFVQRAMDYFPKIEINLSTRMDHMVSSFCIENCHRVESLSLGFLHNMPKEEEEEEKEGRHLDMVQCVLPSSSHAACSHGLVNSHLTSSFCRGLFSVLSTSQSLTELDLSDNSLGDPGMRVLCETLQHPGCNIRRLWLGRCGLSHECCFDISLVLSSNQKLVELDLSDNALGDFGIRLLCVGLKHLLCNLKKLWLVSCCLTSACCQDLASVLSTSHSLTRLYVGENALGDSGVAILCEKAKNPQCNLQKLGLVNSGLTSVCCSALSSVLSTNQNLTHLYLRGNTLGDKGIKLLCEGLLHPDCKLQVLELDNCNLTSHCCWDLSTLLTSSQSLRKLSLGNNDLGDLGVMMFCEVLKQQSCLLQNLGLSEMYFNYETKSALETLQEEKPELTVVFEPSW

SMILES	IC50 [nM]
CCN1CCC(CS(=O)(=O)NC(=O)Nc2c3c(cc4c2CCC4)CCC3)CC1 [Example 1, 1-(1-Ethylpiperidin-4-yl)-N-((1,2,3,5,6,7-hexahydro-s-indacen-4-yl)carbamoyl)methanesulfonamide, potassium salt]	≤ 1000
CCN(CCS(=O)(=O)NC(=O)Nc1c2c(cc3c1CCC3)CCC2)Cc1ccccc1 [Example 11, 2-(Benzyl(ethyl)amino)-N-((1,2,3,5,6,7-hexahydro-s-indacen-4-yl)carbamoyl)ethane-1-sulfonamide, potassium salt]	≤ 7500
CCN(CCCCS(=O)(=O)NC(=O)Nc1c2c(cc3c1CCC3)CCC2)Cc1ccccc1 [Example 13, 4-(Benzyl(ethyl)amino)-N-((1,2,3,5,6,7-hexahydro-s-indacen-4-yl)carbamoyl)butane-1-sulfonamide, potassium salt]	≤ 5000
COCCCS(=O)(=O)NC(=O)Nc1c2c(cc3c1CCC3)CCC2 [Example 14, N-((1,2,3,5,6,7-Hexahydro-s-indacen-4-yl)carbamoyl)-3-methoxypropane-1-sulfonamide, Potassium Salt]	≤ 5000
O=C(Nc1c2c(cc3c1CCC3)CCC2)NS(=O)(=O)Cc1cccnc1 [Example 20, N-((1,2,3,5,6,7-Hexahydro-s-indacen-4-yl)carbamoyl)-1-(pyridin-3-yl)methanesulfonamide, potassium salt]	≤ 5000
CN1CCC(CS(=O)(=O)NC(=O)Nc2c3c(cc4c2CCC4)CCC3)C1 (centres unmarked) [Example 23, N-((1,2,3,5,6,7-Hexahydro-s-indacen-4-yl)carbamoyl)-1-(1-methylpyrrolidin-3-yl)methanesulfonamide, Potassium Salt]	≤ 1000
CCN(C)CCCS(=O)(=O)NC(=O)Nc1c2c(cc3c1CCC3)CCC2 [Example 27, 3-(Ethyl(methyl)amino)-N-((1,2,3,5,6,7-hexahydro-s-indacen-4-yl)carbamoyl)propane-1-sulfonamide, potassium salt]	≤ 1000
O=C(Nc1c2c(cc3c1CCC3)CCC2)NS(=O)(=O)CCN1CCCCC1 [Example 28, N-((1,2,3,5,6,7-Hexahydro-s-indacen-4-yl)carbamoyl)-2-(piperidin-1-yl)ethane-1-sulfonamide, Potassium Salt]	≤ 1000
Cn1cc(CS(=O)(=O)NC(=O)Nc2c3c(cc4c2CCC4)CCC3)cn1 [Example 35, N-((1,2,3,5,6,7-hexahydro-s-indacen-4-yl)carbamoyl)-1-(1-methyl-1H-pyrazol-4-yl)methanesulfonamide]	≤ 5000
CC(CN(C)C)CS(=O)(=O)NC(=O)Nc1c2c(cc3c1CCC3)CCC2 (centres unmarked) [Example 36, 3-(Dimethylamino)-N-((1,2,3,5,6,7-hexahydro-s-indacen-4-yl)carbamoyl)-2-methylpropane-1-sulfonamide, potassium salt]	≤ 1000
CCN(CC)CCCS(=O)(=O)NC(=O)Nc1c(-c2ccncc2)cc(F)c2c1CCC2 [Example 44, 3-(Diethylamino)-N-((7-fluoro-5-(pyridin-4-yl)-2,3-dihydro-1H-inden-4-yl)carbamoyl)propane-1-sulfonamide]	≤ 1000
CC(=O)N(C)CCCS(=O)(=O)NC(=O)Nc1c2c(cc3c1CCC3)CCC2 [Example 53, N-(3-(N-((1,2,3,5,6,7-Hexahydro-s-indacen-4-yl)carbamoyl)sulfamoyl)propyl)-N-methylacetamide, Potassium Salt]	≤ 1000
COc1cc(-c2cc(F)cc(C(C)C)c2NC(=O)NS(=O)(=O)CC2CCN(C)C2)ccn1 (centres unmarked) [Example 58, N-((4-Fluoro-2-isopropyl-6-(2-methoxypyridin-4-yl)phenyl)carbamoyl)-1-(1-methylpyrrolidin-3-yl)methanesulfonamide]	≤ 1000
COc1cc(-c2ccc3c(c2NC(=O)NS(=O)(=O)CC2CCN(C)C2)CCC3)ccn1 (centres unmarked) [Example 59, N-((5-(2-Methoxypyridin-4-yl)-2,3-dihydro-1H-inden-4-yl)carbamoyl)-1-(1-methylpyrrolidin-3-yl)methanesulfonamide]	≤ 1000
